Test results taken from article PMC12542965, “Remolding laccase for whole-cell and in vivo modulation of dopamine signal” (Science Advances, 2025).

Columns and labels:
[1] = target: T1, RuCu-SLAC (remolded laccase) (Streptomyces coelicolor, UniProt Q9XAL8); assay: UV-vis quinone formation at […] nm; format: biochemical; details: 50 mM sodium phosphate, O2 as co-substrate, pH 6.0 to 8.0 (pH series); Ru-Cu artificial metal centre; T1 Cu quantified at 590 nm
T1 construct: gene SCO6712; artificial metalloenzyme: same apo-SLAC polypeptide (E. coli BL21(DE3), N-terminal GST tag cut off by PPase) loaded with Ru3+ then Cu2+; homodimer with one Ru and three Cu; Ru-Cu binuclear centre replaces the Cu trinuclear cluster
T1 sequence (Q9XAL8 34-343): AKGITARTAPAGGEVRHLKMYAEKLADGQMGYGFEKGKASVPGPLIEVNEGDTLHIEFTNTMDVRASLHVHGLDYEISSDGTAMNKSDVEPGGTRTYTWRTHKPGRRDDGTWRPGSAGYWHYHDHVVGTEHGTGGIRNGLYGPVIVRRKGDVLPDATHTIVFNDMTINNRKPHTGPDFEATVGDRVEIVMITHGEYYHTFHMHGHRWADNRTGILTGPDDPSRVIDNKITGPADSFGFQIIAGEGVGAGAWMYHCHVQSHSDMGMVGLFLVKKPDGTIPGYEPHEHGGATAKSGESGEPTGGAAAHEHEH

[2] = target: T2, native SLAC (bacterial small laccase) (Streptomyces coelicolor, UniProt Q9XAL8); assay: UV-vis quinone formation at […] nm; format: biochemical; details: 50 mM sodium phosphate, O2 as co-substrate, pH 6.0 to 8.0 (pH series); native Cu-reconstituted enzyme; T1 Cu quantified at 590 nm
T2 construct: gene SCO6712; reconstituted with CuCl2 (T1 Cu and T2/T3 Cu trinuclear cluster); trimer
T2 sequence (Q9XAL8 34-343): T1 sequence (Q9XAL8 34-343)

In the case of `NCCc1ccc(O)c(O)c1` [dopamine], the Michaelis-Menten constants [1] was “Michaelis-Menten constants and Kcat (turnover number) of both enzymes with a dopamine substrate” and the Michaelis-Menten constants [2] was “Michaelis-Menten constants and Kcat (turnover number) of both enzymes with a dopamine substrate”.
